# Test results published in ChEMBL document CHEMBL6177980 (J Med Chem, 2025).
# Activity calls are given as the source filed them. The rule behind the calls is not given here.
# Experiments:
# [1] = Cytotoxicity against African green monkey Vero cells; assay type: toxicity, cell-based; settings: chlorocebus sabaeus
# [2] = AUC (0 to t) in fasted Cynomolgus monkey at 11.6 mg/kg, po by LC-MS/MS analysis; assay type: ADME, organism-based, Macaca fascicularis; settings: in vivo
# [3] = Prodrug conversion in Beagle dog assessed as AUC (0 to t) of 4'-Fluorouridine metabolite at 1 mg/kg, po by LC-MS/MS analysis; assay type: ADME, organism-based, Canis lupus familiaris; settings: in vivo
# [4] = Prodrug conversion in Sprague-Dawley rat assessed as 4'-Fluorouridine metabolite formation in thymus at 6 mg/kg, po measured for 0.5 to 24 hrs by LC-MS/MS analysis; assay type: ADME, organism-based; settings: in vivo, time 0.5-24 hrs
# [5] = test system: Mammarenavirus choriomeningitidis; experiment: Antiviral activity against LCMV infected in C57BL/6-Prf1tm1Sdz/J mouse assessed as reduction in viral titer in spleen treated orally once daily for 7 days by RT-qPCR analysis; assay type: functional, organism-based; settings: dose 1-5 mg/kg, route po, time 7.0 day
# [6] = Prodrug conversion in Sprague-Dawley rat assessed as AUC (0 to t) of 4'-Fluorouridine metabolite at 6 mg/kg, po by LC-MS/MS analysis; assay type: ADME, organism-based; settings: in vivo
# [7] = Prodrug conversion in Sprague-Dawley rat assessed as Cmax of 4'-Fluorouridine metabolite at 6 mg/kg, po by LC-MS/MS analysis; assay type: ADME, organism-based; settings: in vivo
# [8] = Stability in Sprague-Dawley rat plasma administered orally or intravenously; assay type: ADME, cell-free; settings: po
# [9] = Prodrug conversion in Sprague-Dawley rat assessed as half life of 4'-Fluorouridine metabolite treated orally or intravenously by LC-MS/MS analysis; assay type: ADME; settings: in vivo, po
# [10] = test system: Mammarenavirus choriomeningitidis; experiment: In vivo antiviral activity against LCMV infected in C57BL/6-Prf1tm1Sdz/J mouse assessed as appearance of clear boundary between red and white pulp in spleen at 1 to 5 mg/kg, po qd for 7 days; assay type: functional, organism-based; settings: dose 1-5 mg/kg, time 7.0 day
# [11] = Prodrug conversion in Beagle dog assessed as AUC (0 to t) of 4'-Fluorouridine metabolite at 3 mg/kg/day, po treated for 7 days by LC-MS/MS analysis; assay type: ADME, organism-based, Canis lupus familiaris; settings: in vivo, 168 h, time 7 day
# [12] = Prodrug conversion in Sprague-Dawley rat assessed as 4'-Fluorouridine metabolite formation in kidney at 6 mg/kg, po measured for 0.5 to 24 hrs by LC-MS/MS analysis; assay type: ADME, organism-based; settings: in vivo, time 0.5-24 hrs
# [13] = Toxicity in Sprague-Dawley rat assessed as maximum tolerated dose; settings: in vivo
# [14] = Prodrug conversion in Beagle dog assessed as AUC (0 to t) of 4'-Fluorouridine metabolite at 1 mg/kg, iv by LC-MS/MS analysis; assay type: ADME, organism-based, Canis lupus familiaris; settings: in vivo
# [15] = Stability of compound at pH 4.0 assessed as change in purity at 1 mg/ml incubated for 12 hrs by HPLC analysis; assay type: physicochemical; settings: buffer, pH 4, 12 h
# [16] = Prodrug conversion in Beagle dog assessed as volume of distribution at steady state of 4'-Fluorouridine metabolite treated orally or intravenously by LC-MS/MS analysis; assay type: ADME, Canis lupus familiaris; settings: in vivo, po
# [17] = Prodrug conversion in C57BL/6J mouse assessed as half life of 4'-Fluorouridine metabolite treated orally by LC-MS/MS analysis; assay type: ADME; settings: in vivo, po
# [18] = Stability of compound at pH 1.5 assessed as change in purity at 1 mg/ml incubated for 24 hrs by HPLC analysis; assay type: physicochemical; settings: buffer, pH 1.5, 24 h
# [19] = Prodrug conversion in C57BL/6J mouse assessed as AUC (0 to t) of 4'-Fluorouridine metabolite at 6 mg/kg, po by LC-MS/MS analysis; assay type: ADME, organism-based; settings: in vivo
# [20] = Stability of compound at pH 1.5 assessed as change in purity at 1 mg/ml incubated for 12 hrs by HPLC analysis; assay type: physicochemical; settings: buffer, pH 1.5, 12 h
# [21] = Prodrug conversion in Sprague-Dawley rat assessed as 4'-Fluorouridine metabolite formation in lung at 6 mg/kg, po measured for 0.5 to 24 hrs by LC-MS/MS analysis; assay type: ADME, organism-based; settings: in vivo, time 0.5-24 hrs
# [22] = Prodrug conversion in Sprague-Dawley rat assessed as 4'-Fluorouridine metabolite formation in liver at 6 mg/kg, po measured for 0.5 to 24 hrs by LC-MS/MS analysis; assay type: ADME, organism-based; settings: in vivo, time 0.5-24 hrs
# [23] = Stability in C57BL/6J mouse plasma administered orally or intravenously; assay type: ADME, cell-free; settings: po
# [24] = Prodrug conversion in Beagle dog assessed as AUC (0 to t) of 4'-Fluorouridine metabolite at 3 mg/kg, po by LC-MS/MS analysis; assay type: ADME, organism-based, Canis lupus familiaris; settings: in vivo
# [25] = test system: Mammarenavirus choriomeningitidis; experiment: In vivo antiviral activity against LCMV infected in C57BL/6-Prf1tm1Sdz/J mouse assessed as void of necrosis in spleen at 1 to 5 mg/kg, po qd for 7 days; assay type: functional, organism-based; settings: dose 1-5 mg/kg, time 7.0 day
# [26] = Prodrug conversion in Sprague-Dawley rat plasma assessed as parent nucleoside metabolite formation at 1 uM measured up to 60 mins by LC-MS/MS analysis; assay type: ADME, cell-free; settings: 1 h
# [27] = Prodrug conversion in Sprague-Dawley rat assessed as volume of distribution at steady state of 4'-Fluorouridine metabolite treated orally or intravenously by LC-MS/MS analysis; assay type: ADME; settings: in vivo, po
# [28] = Prodrug conversion in C57BL/6J mouse liver microsomes assessed as parent nucleoside metabolite formation at 1 uM measured up to 60 mins in presence of NADPH/UDPGA by LC-MS/MS analysis; assay type: ADME, Microsome; settings: 1 h
# [29] = Prodrug conversion in Sprague-Dawley rat assessed as 4'-Fluorouridine metabolite formation in heart at 6 mg/kg, po measured for 0.5 to 24 hrs by LC-MS/MS analysis; assay type: ADME, organism-based; settings: in vivo, time 0.5-24 hrs
# [30] = test system: Mammarenavirus choriomeningitidis; experiment: Antiviral activity against LCMV infected in C57BL/6-Prf1tm1Sdz/J mouse assessed as reduction in viral titer in liver treated orally once daily for 7 days by RT-qPCR analysis; assay type: functional, organism-based; settings: dose 1-5 mg/kg, route po, time 7.0 day
# [31] = Stability in SIF assessed as compound degradation measured for 24 hrs by HPLC analysis; assay type: physicochemical; settings: simulated intestinal fluid (SIF), read-out: Drug degradation
# [32] = test system: Mammarenavirus choriomeningitidis; experiment: Antiviral activity against LCMV infected in C57BL/6-Prf1tm1Sdz/J mouse assessed as reduction in viral titer in kidney treated orally once daily for 7 days by RT-qPCR analysis; assay type: functional, organism-based; settings: dose 1-5 mg/kg, route po, time 7.0 day
# [33] = test system: Mammarenavirus choriomeningitidis; experiment: Antiviral activity against LCMV infected in C57BL/6-Prf1tm1Sdz/J mouse assessed as reduction in viral copy number in liver treated orally once daily for 7 days by RT-qPCR analysis; assay type: functional, organism-based; settings: dose 1-5 mg/kg, route po, time 7.0 day
# [34] = Aqueous solubility of compound; assay type: physicochemical; settings: aqueous medium
# [35] = test system: Mammarenavirus choriomeningitidis; experiment: In vivo antiviral activity against LCMV infected in C57BL/6-Prf1tm1Sdz/J mouse assessed as appearance of regular splenic nodule structure at 1 to 5 mg/kg, po qd for 7 days; assay type: functional, organism-based; settings: dose 1-5 mg/kg, time 7.0 day
# [36] = Prodrug conversion in Sprague-Dawley rat assessed as AUC (0 to t) of 4'-Fluorouridine metabolite at 2 mg/kg, iv by LC-MS/MS analysis; assay type: ADME, organism-based; settings: in vivo
# [37] = Toxicity in Sprague-Dawley rat assessed as drug tolerance administered as single dose; settings: in vivo
# [38] = Prodrug conversion in Sprague-Dawley rat assessed as 4'-Fluorouridine-NTP metabolite formation in lung at 6 mg/kg, po measured for 0.5 to 24 hrs by LC-MS/MS analysis; assay type: ADME, organism-based; settings: in vivo, time 0.5-24 hrs
structure (smiles),measurement,setting,value
CC(C)C(=O)OC[C@@]1(F)O[C@@H](n2ccc(=O)n(COC(=O)c3cccnc3)c2=O)[C@H](OC(=O)C(C)C)[C@@H]1OC(=O)C(C)C,CC50,[1],> 100 µM
same,AUC(0-t),[2],15.1 µg·h/mL
same,AUCt,[3],0.257 µg·h/mL
same,Drug metabolism,[4],metabolite_detected
same,Activity,[5],Dose-dependent-effect
same,AUCt,[6],3.023 µg·h/mL
same,Cmax,[7],0.329 µg/mL
same,Stability,[8],Unstable
same,t1/2,[9],15 h
same,Activity,[10],Active
same,AUCt,[11],1.249 µg·h/mL
same,Drug metabolism,[12],metabolite_detected
same,MTD,[13],> 500 mg/kg
same,AUCt,[14],0.282 µg·h/mL
same,Activity,[15],0%
same,Vdss,[16],3.07 L/kg
same,t1/2,[17],12 h
same,Activity,[18],-9.2%
same,AUCt,[19],1.729 µg·h/mL
same,Activity,[20],-4.2%
same,Drug metabolism,[21],metabolite_detected
same,Drug metabolism,[22],metabolite_detected
same,Stability,[23],Unstable
same,AUCt,[24],0.903 µg·h/mL
same,Activity,[25],Active
same,Drug metabolism,[26],metabolite_detected
same,Vdss,[27],24.3 L/kg
same,Drug metabolism,[28],metabolite_detected
same,Drug metabolism,[29],metabolite_detected
same,Activity,[30],Dose-dependent-effect
same,degraded at 24 h,[31],< 5%
same,Activity,[32],Dose-dependent-effect
same,Activity,[33],Dose-dependent-effect
same,solubility,[34],0.01 mg/mL
same,Activity,[35],Active
same,AUCt,[36],1.056 µg·h/mL
same,Activity,[37],Non-toxic
same,Drug metabolism,[38],metabolite_detected
